Results from PMC2192356 (The Journal of Experimental Medicine, 1996).
Where a SMILES comes first, the peptide text is derived from it. Where no end group is shown, it is not given here. The star is where a group is joined. Biotin = O=C1N[C@H]2[C@H](CS[C@H]2CCCCC(=O)*)N1

Tests used:
[1] = system: class II proteins; format: binding
[2] = molecular target: T1, IAk (Mus musculus, UniProt P01910+P06343); format: binding, murine; conditions: pH 5
[3] = molecular target: IAk (mouse (endogenous in CH27 B lymphoma)); test: ELISA
[4] = molecular target: T1, IAk; format: binding, murine; conditions: pH 5; remark: listed apart in the source
[5] = system: IEk; format: binding, murine; conditions: pH 5
[6] = system: IAd; format: binding, murine; conditions: pH 5
[7] = system: IEk; format: binding, murine; conditions: pH 5; remark: listed apart in the source
[8] = molecular target: T2, DR1 (Homo sapiens, UniProt P01903+P01911, A100R/D57E/F55L/F60I/F76Y/I96L/L162R/M171V/P40L/Q125E/R42F/V115G/Y59C); format: binding; conditions: pH 7
[9] = system: 3DO-54.8 T cells
[10] = molecular target: T1, IAk; format: binding, murine; conditions: pH 7
[11] = system: 3DO-54.8 T cells with CH27 APC; format: cell-based
[12] = system: IAd; format: binding, murine; conditions: pH 5; remark: listed apart in the source
[13] = molecular target: T2, DR1; format: binding; conditions: pH 5
[14] = molecular target: T1, IAk; format: binding, murine; conditions: pH 5; remark: listed apart in the source
[15] = system: IEd; format: binding, murine; conditions: pH 5
[16] = system: IEk; format: binding, murine; conditions: pH 5; remark: listed apart in the source
[17] = system: IAb; format: binding, murine
[18] = molecular target: T2, DR1; format: binding; conditions: pH 7; remark: listed apart in the source
[19] = molecular target: DR1 (human (endogenous in LG2)) (UniProt P01903); test: ELISA

Molecule: Myo(106-118): IAd-binding peptide (FISEAIIHVLHSR) [reference compound]
- inhibition of biotin-B(10-30) binding to class II [1]: inhibits

Molecule: CC(C)C[C@H](NC(=O)[C@H](C)NC(=O)[C@H](CCC(=O)O)NC(=O)[C@@H](NC(=O)[C@H](CC(C)C)NC(=O)[C@H](Cc1c[nH]cn1)NC(=O)CCCC[C@@H]1SC[C@@H]2NC(=O)N[C@@H]21)C(C)C)C(=O)N[C@@H](Cc1ccc(O)cc1)C(=O)N[C@@H](CC(C)C)C(=O)N[C@H](C(=O)N[C@@H](CS)C(=O)NCC(=O)N[C@@H](CCC(=O)O)C(=O)N[C@@H](CCCNC(=N)N)C(=O)NCC(=O)N[C@@H](Cc1ccccc1)C(=O)N[C@@H](Cc1ccccc1)C(=O)N[C@@H](Cc1ccc(O)cc1)C(=O)N[C@H](C(=O)N1CCC[C@H]1C(=O)N[C@@H](CCCCNC(=O)CCCC[C@@H]1SC[C@@H]2NC(=O)N[C@@H]21)C(=O)N[C@@H](C)C(=O)O)[C@@H](C)O)C(C)C [biotin-B(10-30)] (Biotin-HLVEALYLVCGERGFFYTPK(Biotin)A-OH; N-terminus and C-terminus assumed)
- time to saturate the alternative binding site of IAk [2]: ≤ 1 h

Molecule: biotin-SEB (from UniProt P01552 28-266) (natural protein)
- Kd [3]: 62 nM

Molecule: FVNQHLCGSHLVEALYLVCGER [B(1-22)]
- inhibition of the binding of biotin-B(10-30) [4]: inhibits
- inhibition of the binding of biotin-B(10-30) [5]: inhibits
- inhibition of the binding of biotin-B(10-30) [6]: inhibits

Molecule: HLVEALYLVCGERGFFYTPKA [B(10-30)]
- specific binding to class II protein [7]: binds
- inhibition of the binding of biotin-B(10-30) [4]: inhibit
- dissociation rate from class II [1]: relatively rapid
- pH dependence of binding to murine class II proteins [1]: not enhanced
- time to approach saturation / plateau of binding to class II [1]: 1 to 2 h
- affinity for DR1 relative to HA(306-318), logs lower [8]: ~ 3 logs
- inhibition of the binding of allele-specific antigenic peptides [8]: only weakly inhibited
- effect on stimulation by anti-CD3 mAb (T cell toxicity) [9]: not altered
- specific binding to class II protein [2]: binds
- inhibition of the binding of biotin-SEB to IAk [10]: inhibited
- peptide concentration giving complete inhibition of SEB binding to IAk [10]: 4
- inhibition of the binding of biotin-B(10-30) [5]: inhibit
- inhibition of the binding of biotin-B(10-30) [6]: inhibit
- inhibition of the response of 3DO-54.8 to SEB (IL-2) [11]: inhibited
- specific binding to class II protein [12]: binds
- specific binding to class II protein [13]: binds
- inhibition of the binding of allele-specific antigenic peptides [14]: only weakly inhibited
- specific binding to class II protein [15]: binds
- affinity for the groove of IEk relative to pCc(91-104), logs lower [16]: at least 3 logs
- inhibition of the binding of allele-specific antigenic peptides [16]: only weakly inhibited
- specific binding to class II protein [17]: binds

Molecule: Intact insulin [reference compound]
- inhibition of the binding of biotin-B(10-30) [4]: does not inhibit
- inhibition of the binding of biotin-B(10-30) [5]: does not inhibit
- inhibition of the binding of biotin-B(10-30) [6]: does not inhibit

Molecule: MAT(17-31): DR1-binding antigenic peptide defined by specific T cells (SGPLKAEIAQRLEDV)
- inhibition of the binding of biotin-B(10-30) to DR1 [18]: 25- 50%

Molecule: NTDGSTDYGILQINSR [HEL(46-61), reference compound]
- inhibition of the binding of biotin-SEB to IAk [10]: No inhibition
- inhibition of the response of 3DO-54.8 to SEB (IL-2) [11]: did not
- affinity for the groove of IEk relative to pCc(91-104), logs lower [16]: at least 3 logs

Molecule: RADLIAYLKQATAK [pCc(91-104), reference compound]
- inhibition of the binding of allele-specific antigenic peptides [16]: inhibit

B1: biotin-B(10-30) (peptide)
peptide: HLVEALYLVCGERGFFYTPKA
modifications: not fully specified (N-terminus); also: biotin (site not given here)
- Kd [19]: 620 nM
